Measured values as given in US7217724B2, “Indole, indazole, and benzazole derivative” (Dainippon Sumitomo Pharma Co., Ltd., priority 2002, dated 2007).
Counter-ions that a name gives are not always drawn.

How the values were obtained:
[1] = biological target: T1, human β1-receptor (Homo sapiens, UniProt P08588); experiment: Human β1-receptor stimulation test (cAMP production in THP-1 cells); assay type: cell-based
T1 construct: THP-1 cell line, i.e., cells expressing both human β2- and β1-receptors; host or cells: THP-1 cells
T1 sequence (P08588 whole entry): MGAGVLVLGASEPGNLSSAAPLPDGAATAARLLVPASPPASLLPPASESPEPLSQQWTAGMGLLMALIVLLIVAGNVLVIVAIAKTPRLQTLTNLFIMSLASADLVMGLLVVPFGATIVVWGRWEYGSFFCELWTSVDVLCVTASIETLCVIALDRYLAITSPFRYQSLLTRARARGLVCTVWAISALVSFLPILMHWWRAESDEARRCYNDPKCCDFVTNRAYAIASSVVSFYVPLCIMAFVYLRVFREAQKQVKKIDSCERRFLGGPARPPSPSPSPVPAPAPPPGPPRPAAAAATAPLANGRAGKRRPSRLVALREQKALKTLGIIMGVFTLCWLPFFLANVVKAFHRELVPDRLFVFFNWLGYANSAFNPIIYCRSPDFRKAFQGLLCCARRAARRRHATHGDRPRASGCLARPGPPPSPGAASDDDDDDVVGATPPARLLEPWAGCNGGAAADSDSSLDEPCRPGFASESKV
Text: (§1) Human β3, β2 and β1-receptor stimulation test
(§2) Human β3-receptor-stimulating activity was studied using SK-N-MC cell line, i.e., cells permanently expressing human β3- and human β1-receptors (SK-N-MC cells, purchased from Dainippon Pharmaceutical Co., Ltd.), and human β2- and β1-receptor-stimulating activities were studied using THP-1 cell line, i.e., cells expressing both human β2- and β1-receptors (THP-1 cells, purchased Dainippon Pharmaceutical Co., Ltd.).
(§3) The β3-receptor stimulating activity of a test compound (10^−9 to 10^−5 M) was studied using as an index cyclic AMP (hereinafter, referred to as cAMP) producing activity of SK-N-MC cells at almost confluent in the presence of a β1-receptor inhibitor ((±)-2-hydroxy-5-(2-((2-hydroxy-3-(4-(1-methyl-4-(trifluoromethyl)-1H-imidazol-2-yl)phenoxy)propyl)-amino)ethoxy)benzamide methanesulfonate, CGP-20712A (Sigma-Aldrich), 10^−6M), wherein said SK-N-MC cells were seeded into a 96-well plate at a cell density of 2×10^4 cells/well and had been cultured for 3 days. […] The cAMP production in the cells was measured by ELISA method. […]

[2] = tested on: β1-adrenoceptor; experiment: Autonomic beat of the excised right atrium specimen (positive chronotropic action, Magnus method); parameters: species or system Hartley guinea pig; conditions: method of Experiment 2
Experimental: Effect of a medicament on autonomic beat of the excised right atrium specimen based on β1-adrenoceptor-stimulating activity (study on positive chronotropic action)
The heart of Hartley guinea pig was excised, and a right atrium specimen was prepared therefrom and the experiment was carried out thereon according to Magnus method. The specimen was hung at 34° C. in Krebs-Henseleit solution to which a mixed gas of 95% oxygen and 5% carbon dioxide was aerated, and loaded so that the maximum resting tension became about 0.5 g. The autonomic beat of the right atrium was detected through a pressure transducer, and the tension and the beat were continuously recorded onto a linear recorder. A medicament was cumulatively added every time the beat became plateau. […]
In order to show the divergence between β3-stimulating activity/β1-stimulating activity in the experimental results, the EC50 value of positive chronotropic action of the test compound of Examples obtained in Experiment 2 was divided by the EC50 value of human β3-stimulating activity of said compound obtained in Experiment 1, which is the main activity in Experiment 1. The results are expressed by relative values, which are calculated by counting the value of the reference compound (AJ 9677) as 1.

[3] = biological target: T2, human β3-receptor (Homo sapiens, UniProt P13945); experiment: Human β3-receptor stimulation test (cAMP production in SK-N-MC cells); assay type: cell-based; conditions: in the presence of β1-receptor inhibitor CGP-20712A 10^−6 M, read-out: EC50 value of β3-stimulating activity
T2 construct: SK-N-MC cell line, i.e., cells permanently expressing human β3- and human β1-receptors; host or cells: SK-N-MC cells
T2 sequence (P13945 whole entry): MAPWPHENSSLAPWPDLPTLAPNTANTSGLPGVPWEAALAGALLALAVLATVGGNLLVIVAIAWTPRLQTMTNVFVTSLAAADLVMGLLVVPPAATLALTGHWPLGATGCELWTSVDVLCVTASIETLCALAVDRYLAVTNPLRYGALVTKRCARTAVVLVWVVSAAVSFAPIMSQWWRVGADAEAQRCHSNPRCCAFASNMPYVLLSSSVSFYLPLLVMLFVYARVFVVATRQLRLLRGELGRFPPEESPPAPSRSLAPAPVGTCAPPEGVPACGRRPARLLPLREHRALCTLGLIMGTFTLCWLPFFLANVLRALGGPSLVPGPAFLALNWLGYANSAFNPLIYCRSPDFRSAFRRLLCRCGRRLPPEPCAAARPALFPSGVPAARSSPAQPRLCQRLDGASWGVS
Text: as §1, §2, §3

[4] = biological target: T3, human β2-receptor (Homo sapiens, UniProt P07550); experiment: Human β2-receptor stimulation test (cAMP production in THP-1 cells); assay type: cell-based; conditions: with CGP-20712A, activity not observed up to a maximum concentration, read-out: β2-stimulating activity
T3 construct: THP-1 cell line, i.e., cells expressing both human β2- and β1-receptors; host or cells: THP-1 cells
T3 sequence (P07550 whole entry): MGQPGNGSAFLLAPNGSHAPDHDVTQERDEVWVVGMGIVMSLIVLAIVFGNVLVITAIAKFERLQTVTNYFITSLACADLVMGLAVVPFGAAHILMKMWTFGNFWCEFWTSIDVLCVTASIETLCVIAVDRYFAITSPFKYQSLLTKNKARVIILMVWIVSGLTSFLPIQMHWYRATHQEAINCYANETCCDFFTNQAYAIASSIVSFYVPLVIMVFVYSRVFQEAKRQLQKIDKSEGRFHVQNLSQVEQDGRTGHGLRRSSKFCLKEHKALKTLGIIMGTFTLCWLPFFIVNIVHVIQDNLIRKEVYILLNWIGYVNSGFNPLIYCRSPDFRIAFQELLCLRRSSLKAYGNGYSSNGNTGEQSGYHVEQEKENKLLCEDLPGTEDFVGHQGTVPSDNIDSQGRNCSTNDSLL
Text: as §1, §2, §3

| SMILES | β1- and/or β2-adrenoceptor-stimulating activities in the conventional evaluation system ([1]; cells, method of Experiment 1 (β1 and β2, THP-1 cells)) | β1- and/or β2-adrenoceptor-stimulating activities in the evaluation system using tissues [2] | EC50 ([1]; THP-1 cells, cAMP production, with ICI-118551, activity not observed up to a maximum concentration, read-out: β1-stimulating activity) [µM] | EC50 [3] [µM] | EC50 [4] [µM] |
| --- | --- | --- | --- | --- | --- |
| C[C@H](Cc1c[nH]c2c(OCC(=O)O)cccc12)NC[C@H](O)c1cccc(Cl)c1 [AJ 9677, reference compound] | does not exhibit β1- and/or β2-adrenoceptor-stimulating activities | exhibits β1- and/or β2-adrenoceptor-stimulating activities | – | – | – |
| C[C@H](Cc1c[nH]c2c(OCC(=O)O)cccc12)NC[C@H](O)c1cccnc1 [Example 2, {3-[(2 R)-2-((2R)-2-Hydroxy-2-pyridin-3-ylethylamino)propyl]-1 H-indol-7-yloxy}acetic acid.2 trifluoroacetate] | – | – | > 10 | 0.048 | > 10 |
